Measurements from patent publication US11696917B2, “Agent enhancing antitumor effect using pyrazolo[3,4-d]pyrimidine compound” (TAIHO PHARMACEUTICAL CO., LTD., priority 2017, dated 2023).

Tested on: NCI-N87 (human stomach cancer)
Experiment: Combination of Compound 1 and other antitumor agents (in vitro), CellTiter-Glo, median effect method
Assay type: cell-based
Protocol: The supplier of each reagent, the suppliers of tumor cell lines, the media used, and the numbers of cells to be inoculated are shown in the tables below.
The cells were inoculated at 20 μL/well to a 384-well culture plate (Corning Inc.). The plate inoculated with the cells were cultured in an incubator set to 37° C. and 5% CO2. On the day following inoculation, each of mixed solutions of Compound 1 and each other antitumor agent at varying combinations of concentrations was added to the cells. Specifically, 8 serial dilutions (including (0 nM)) of Compound 1 and 10 serial dilutions (including (0 nM)) of the other antitumor agent were prepared using Leibovitz's L-15 medium containing 10% FBS, or ATCC formulated RPMI-1640 medium containing 10% FBS. Drug solutions in which equal amounts of the respective serial dilutions of the compounds were dispensed were mixed at a ratio of 1:1 to prepare a total of 80 mixed drug solutions including every combination. Each of these mixed drug solutions was added at 5 μL/well (N=4) to the plate, followed by further culture for 3 days under conditions of 37° C. and 5% CO2.
Three days later, CellTiter-Glo™ 2.0 Reagent (Promega Corporation) was added thereto at 25 μL/well, and chemiluminescence was measured using a plate reader (EnSpire® Multimode Plate Reader, PerkinElmer Japan Co., Ltd.).
The enhancement of an effect by combined use of the drugs was evaluated according to a method known in the art (a method described in Trends Pharmacol. Sci., 4, 450-454, 1983 or Pharmacol Rev., 58 (3), 621-81, 2006).
An average value from 4 wells of each combination was calculated from the obtained data, and a cell survival rate normalized against a control supplemented with a medium containing a vehicle was calculated. A Fa (fraction of affect) value was calculated by subtracting the cell survival rate from 1. Median effect analysis software CalcuSyn 2.0 (CalcuSyn, Inc.) for calculation by the median effect method was used in the calculation of CI.
As for the combinations of the concentrations of both the drugs for calculating CI, a Fa value closer to 1 presumably means a concentration range in which one of the drugs had too strong an effect, and a Fa value closer to 0 presumably means a concentration range in which any of the drugs had too weak an effect. Since these concentration ranges were not appropriate for the discussion of a synergistic effect, combinations that satisfied 0.2 S Fa 0.8 were extracted from the combinations of the respective concentrations of Compound 1 and the other antitumor agent on the basis of the calculated Fa value.
An effect of combined use was determined as shown in the table below (Pharmacol Rev., 58 (3), p. 621-81, 2006).

[1] = Compound 1 0.137 nM + Cisplatin 2062 nM, ratio 1:15030, NCI-N87
[2] = Compound 1 0.137 nM + Gemcitabine 1.37 nM, ratio 1:10, NCI-N87
[3] = Compound 1 0.137 nM + Gemcitabine 4.12 nM, ratio 1:30, NCI-N87
[4] = Compound 1 0.137 nM + Gemcitabine 12.3 nM, ratio 1:90, NCI-N87
[5] = Compound 1 0.137 nM + Trifluridine 12346 nM, ratio 1:90000, NCI-N87
[6] = Compound 1 0.412 nM + Cisplatin 2062 nM, ratio 1:5010, NCI-N87
[7] = Compound 1 0.412 nM + Cisplatin 6185 nM, ratio 1:15030, NCI-N87
[8] = Compound 1 0.412 nM + FdUrd 4115 nM, ratio 1:10000, NCI-N87
[9] = Compound 1 0.412 nM + FdUrd 12346 nM, ratio 1:30000, NCI-N87
[10] = Compound 1 0.412 nM + FdUrd 37037 nM, ratio 1:90000, NCI-N87
[11] = Compound 1 0.412 nM + Trifluridine 1372 nM, ratio 1:3333, NCI-N87
[12] = Compound 1 0.412 nM + Trifluridine 4115 nM, ratio 1:10000, NCI-N87
[13] = Compound 1 0.412 nM + Trifluridine 12346 nM, ratio 1:30000, NCI-N87
[14] = Compound 1 0.412 nM + Trifluridine 37037 nM, ratio 1:90000, NCI-N87
[15] = Compound 1 1.24 nM + Cisplatin 6185 nM, ratio 1:5010, NCI-N87
[16] = Compound 1 1.24 nM + Cisplatin 18556 nM, ratio 1:15030, NCI-N87
[17] = Compound 1 1.24 nM + FdUrd 12346 nM, ratio 1:10000, NCI-N87
[18] = Compound 1 1.24 nM + FdUrd 37037 nM, ratio 1:30000, NCI-N87
[19] = Compound 1 1.24 nM + FdUrd 111111 nM, ratio 1:90000, NCI-N87
[20] = Compound 1 1.24 nM + Gemcitabine 1.37 nM, ratio 1:1.1, NCI-N87
[21] = Compound 1 1.24 nM + Gemcitabine 4.12 nM, ratio 1:3.3, NCI-N87
[22] = Compound 1 1.24 nM + Gemcitabine 12.3 nM, ratio 1:10, NCI-N87
[23] = Compound 1 1.24 nM + Gemcitabine 37.0 nM, ratio 1:30, NCI-N87
[24] = Compound 1 1.24 nM + Gemcitabine 111 nM, ratio 1:90, NCI-N87
[25] = Compound 1 1.24 nM + Paclitaxel 5.56 nM, ratio 1:4.5, NCI-N87
[26] = Compound 1 1.24 nM + Trifluridine 1372 nM, ratio 1:1111, NCI-N87
[27] = Compound 1 1.24 nM + Trifluridine 4115 nM, ratio 1:3333, NCI-N87
[28] = Compound 1 1.24 nM + Trifluridine 12346 nM, ratio 1:10000, NCI-N87
[29] = Compound 1 1.24 nM + Trifluridine 37037 nM, ratio 1:30000, NCI-N87
[30] = Compound 1 1.24 nM + Trifluridine 111111 nM, ratio 1:90000, NCI-N87
[31] = Compound 1 3.70 nM + Cisplatin 2062 nM, ratio 1:557, NCI-N87
[32] = Compound 1 3.70 nM + Cisplatin 6185 nM, ratio 1:1670, NCI-N87
[33] = Compound 1 3.70 nM + Cisplatin 18556 nM, ratio 1:5010, NCI-N87
[34] = Compound 1 3.70 nM + FdUrd 4115 nM, ratio 1:1111, NCI-N87
[35] = Compound 1 3.70 nM + FdUrd 12346 nM, ratio 1:3333, NCI-N87
[36] = Compound 1 3.70 nM + FdUrd 37037 nM, ratio 1:10000, NCI-N87
[37] = Compound 1 3.70 nM + FdUrd 111111 nM, ratio 1:30000, NCI-N87

`C=CC(=O)N1CCC[C@@H](n2nc(C(=O)Nc3ccc(CC(=O)N(C)C)c(C)c3C)c3c(N)ncnc32)C1` [Compound 1, (R)-1-(1-acryloylpiperidin-3-yl)-4-amino-N-(4-(2-(dimethylamino)-2-oxoethyl)-2,3-dimethylphenyl)-1H-pyrazolo[3,4-d]pyrimidine-3-carboxamide] showed a CI [1] of 0.62, a Fa [1] of 0.39 and a CI [2] of 0.03. For the same compound, the Fa [2] was 0.69, the CI [3] was 0.37 and the Fa [3] was 0.68. For the same compound, the CI [4] was 0.01, the Fa [4] was 0.73 and the CI [5] was 0.26. It also gave a Fa [5] of 0.43, a CI [6] of 0.64 and a Fa [6] of 0.36. The CI [7] was 0.57, the Fa [7] was 0.55 and the CI [8] was 0.39. It also gave a Fa [8] of 0.25, a CI [9] of 0.46 and a Fa [9] of 0.30. For the same compound, the CI [10] was 0.63, the Fa [10] was 0.41 and the CI [11] was 0.35. For the same compound, the Fa [11] was 0.26, the CI [12] was 0.65 and the Fa [12] was 0.26. The CI [13] was 0.38, the Fa [13] was 0.41 and the CI [14] was 0.34. The Fa [14] was 0.54, the CI [15] was 0.40 and the Fa [15] was 0.60. It also gave a CI [16] of 0.42, a Fa [16] of 0.72 and a CI [17] of 0.58. It also gave a Fa [17] of 0.33, a CI [18] of 0.70 and a Fa [18] of 0.39. The CI [19] was 0.39, the Fa [19] was 0.54 and the CI [20] was 0.07. The Fa [20] was 0.70, the CI [21] was 0.06 and the Fa [21] was 0.71. For the same compound, the CI [22] was 0.04, the Fa [22] was 0.77 and the CI [23] was 0.05. It also gave a Fa [23] of 0.73, a CI [24] of 0.05 and a Fa [24] of 0.72. The CI [25] was 0.45, the Fa [25] was 0.50 and the CI [26] was 0.78. It also gave a Fa [26] of 0.24, a CI [27] of 0.71 and a Fa [27] of 0.31. For the same compound, the CI [28] was 0.37, the Fa [28] was 0.48 and the CI [29] was 0.41. For the same compound, the Fa [29] was 0.55, the CI [30] was 0.68 and the Fa [30] was 0.59. The CI [31] was 0.58, the Fa [31] was 0.54 and the CI [32] was 0.38. It also gave a Fa [32] of 0.67, a CI [33] of 0.42 and a Fa [33] of 0.75. The CI [34] was 0.82, the Fa [34] was 0.39 and the CI [35] was 0.58. For the same compound, the Fa [35] was 0.47, the CI [36] was 0.41 and the Fa [36] was 0.56. The CI [37] was 0.60 and the Fa [37] was 0.57.
